According to PMC6587507, “Comparison of the metabolism of 10 chemicals in human and pig skin explants” (Journal of Applied Toxicology, 2018):
Read-outs that look alike come from different tables or passages of the source.

Assays:
[1] = test system: pig ear skin explants; test: Cutaneous distribution and mass balance of radioactivity in pig skin explants; conditions: pig skin; for % Radioactivity in culture media after 24 h / Mass balance (% of applied dose at end of incubation): 2.4 nmol/cm^2; for Mass balance (% of applied dose at end of incubation): 48 h; for Medium radioactivity / Skin radioactivity / Skin surface radioactivity: end of incubation (48 h), mean ± SD
Procedure: (§1) Human abdominal skin was obtained (with consent for research from a commercial supplier [L’Union Clinic, Rangueil hospital and Icelltis, Toulouse, France] with certified ethical procedures) from six male and 34 female healthy donors, 41 ± 11 years of age, undergoing cosmetic surgery. Abdominal skin was kept at 4°C during transports and placed in culture within 3 hours of surgery. Pig ear skin was a waste product of the meat industry (without hot steam treatment) from domestic pigs (female Pietrain breed, 6 months old, 80‐100 kg) obtained from a local slaughterhouse (Montauban, France). Ears were taken from the animals within 5 minutes of slaughter and were kept at 4°C during transport to the laboratory, which lasted a maximum of 2 hours. Pig skin samples were dried and then gently shaved.
(§2) The experiment and the preparation of the culture medium were performed under sterile conditions. Human and pig skin was cut with a dermatome to a thickness of 450 ± 50 μm. Skin punches were seeded dermal side down in polycarbonate Transwell® inserts from Corning Life Sciences (Avon, France; 4.16 cm^2 application area with an 8 μm pore size filter). […] The inserts were placed in a six‐well plate containing 1.5 mL culture medium and the skin explants incubated in a standard incubator at 37°C, under an atmosphere of 5% CO2 and 50 ± 10% relative humidity. The culture medium was Dulbecco's modified Eagle medium without phenol red supplemented with 8 mM L‐glutamine, 2 μg/mL streptomycin/penicillin, 25 ng/mL fungizone and 50 ng/mL gentamycin. Skin explants were incubated for 1 hour before application of the formulation.
(§3) The dosing volume was 10 μL/cm^2. For pig skin metabolism studies, which were carried out before the human skin experiments to ensure the analytics were optimal, 2.4 nmol/cm^2 of each chemical (only the ^14C‐labeled form) was applied on the skin and incubated for 24 hours for the measurement of metabolites in the medium. These tissues were further incubated for a total of 48 hours, with a replacement of the culture medium after 24 hours. This longer incubation time and the standard doses of 2.4 nmol/cm^2 were used to maximize the likelihood of the skin forming metabolites to develop analytical methods. The metabolites profiles in pig and human skin were compared in the medium sample at 24 hours of incubation. The metabolite profiles for the 48‐hour timepoint are not reported here since humans skin metabolism was measured at 24 hours only; however, for completeness, the distribution of radioactivity at the end of both pig (48 hours) and human (24 hours) skin incubations is reported. […] The doses were obtained by mixing radiolabeled and cold chemical. One replicate disc per donor and per dose was used. All chemicals were tested on four donors of pig and human skin, except for 2‐AAF and 4‐amino‐3‐nitrophenol (4‐A‐3‐NP), for which three donors were used. The medium was removed after 24 hours of incubation and stored at −20°C for analysis.
(§4) At the end of the experiment, the trans‐wells were dismantled and washed with appropriate solvent for each chemical. […] The cotton swabs were placed in 5 mL of appropriate solvent in a scintillation counting flask and placed in a sonicator bath for 20 minutes. Aliquots of 1 mL were counted by liquid scintillation, after addition of 15 mL of scintillation liquid. Tissue culture inserts were washed with 10 mL of appropriate solvent. One aliquot of 1 mL was counted by liquid scintillation, after addition of 15 mL of scintillation liquid. After media removal, wells were washed twice with 1 mL of the appropriate solvent. Washing solutions were counted by liquid scintillation, after addition of 15 mL of scintillation liquid.
(§5) Pig skin explants were digested using 3 mL Soluable (60°C for 24 hours) and counted by liquid scintillation. Skin extraction process was adapted according to the physicochemical properties of each chemical and its potential metabolites.

[2] = test system: human abdominal skin explants; test: Cutaneous distribution and mass balance of radioactivity in human skin explants; conditions: human skin; for % Radioactivity in culture media after 24 h / Mass balance (% of applied dose at end of incubation): 24 h; for Medium radioactivity / Skin radioactivity / Skin surface radioactivity: end of incubation (24 h), mean ± SD
Procedure: as §1, §2, §3, §4, §5

[3] = test system: human abdominal skin explants
Procedure: as §1, §2, §3
(§6) After centrifugation, a 100 μL aliquot of the extract was counted by liquid scintillation. The pellet was dissolved in 3 mL Soluable (60°C, 24 hours) and then counted by liquid scintillation.
(§7) Analysis of the chemicals and their metabolites in medium after 24 hours of incubation with pig and human skin was measured by radio‐high‐performance liquid chromatography (HPLC) using an HPLC 1100 Series, Agilent and a Flow Scintillation Analyzer, Radiomatic 610 TR, Perkin Elmer (Villebon‐sur‐Yvette, France). […] To confirm that metabolites were the same in pig and human skin, medium samples were co‐injected on the new column. The metabolites were identified by LC‐electrospray ionization‐HRMS (HPLC‐ESI‐HRMS) with a RSLC3000 HPLC system coupled to a LTQ‐Orbitrap XL mass spectrometer (Thermo Scientific). The HPLC analytical conditions for identification and quantification of the metabolites for each chemical are summarized in Supporting information Table S1.

[4] = test system: pig ear skin explants; conditions: for Parent compound in the medium after 24 h / Metabolites detected in the skin or culture media / Number of metabolites detected in the culture medium: pig skin; for Parent compound in the medium after 24 h: mean ± SEM; for Parent compound in the medium after 24 h / Number of metabolites detected in the culture medium: 24 h
Procedure: as §1, §2, §3, §6, §7

[5] = test system: N‐acetyltransferase (NAT)1 enzyme; design: method as in unpublished data; conditions: ref unpublished data; cited from earlier work
[6] = ref Chemspider (www.chemspider.com), cited from earlier work
[7] = test system: skin explants; test: Skin explant assay, radioactivity in culture medium bound to proteins; assay type: in vitro ADME; conditions: medium with 4% BSA; species not stated

Structure (SMILES)	% Radioactivity in culture media after 24 h [1]	Mass balance (% of applied dose at end of incubation) [1]	Medium radioactivity [1]	Skin radioactivity [1]	Skin surface radioactivity [1]	% Radioactivity in culture media after 24 h [2]	Mass balance (% of applied dose at end of incubation) [2]	Medium radioactivity [2]	Skin radioactivity [2]	Skin surface radioactivity [2]	Parent compound in the medium after 24 h ([3]; human skin, 24 h, mean ± SEM)	Parent compound in the medium after 24 h [4]	LogP [6]	Maximum water solubility [6]	also measured
Nc1ccc(O)cc1[N+](=O)[O-] [4‐A‐3‐NP, 4‐amino‐3‐nitrophenol]	51.9 ± 6.7%	96.0 ± 2.6 % of applied dose	69.9 ± 5.8 % of the applied dose	15.6 ± 5.3 % of the applied dose	10.5 ± 5.1 % of the applied dose	62.3 ± 3.4%	94.4 ± 3.0 % of applied dose	62.3 ± 3.4 % of the applied dose	28.6 ± 4.5 % of the applied dose	3.6 ± 2.1 % of the applied dose	0.1 ± 0.06 % Applied dose	0.6 ± 0.2 % Applied dose	0.41	2000 µg/mL	N‐acetylated metabolite ([3]; human skin incubations): not detected; N‐acetylated metabolite ([4]; pig skin incubations): not detected; Substrate for NAT1 [5]: not a substrate
Nc1ccc(Cl)cc1 [4‐Chloroaniline]	54.3 ± 0.6%	99.2 ± 10.8 % of applied dose	–	–	0.7 ± 0.2 % of the applied dose	49.7 ± 4.4%	86.2 ± 0.7 % of applied dose	–	–	2.2 ± 0.5 % of the applied dose	–	–	–	3200 µg/mL	Medium radioactivity ([1]; listed as 4-Chloroaniline): 82.1 ± 8.8 % of the applied dose; Skin radioactivity ([1]; listed as 4-Chloroaniline): 16.3 ± 2.3 % of the applied dose; Medium radioactivity ([1]; listed as 4‐chloroaniline): 82 % of the applied dose; Skin radioactivity ([1]; listed as 4‐chloroaniline): 16 % of the applied dose; Medium radioactivity ([2]; listed as 4-Chloroaniline): 49.7 ± 4.4 % of the applied dose; Skin radioactivity ([2]; listed as 4-Chloroaniline): 34.4 ± 3.8 % of the applied dose; Medium radioactivity ([2]; listed as 4‐chloroaniline): 50 % of the applied dose; Skin radioactivity ([2]; listed as 4‐chloroaniline): 35 % of the applied dose; Metabolites detected in the skin or culture media ([3]; human skin): no metabolites were detected; Metabolites detected in the skin or culture media [4]: no metabolites were detected; Radioactivity detected in the culture medium bound to proteins [7]: ~ 20%
CCOc1ccc2ccc(=O)oc2c1 [7‐EC, 7‐ethoxycoumarin]	62.5 ± 2.7%	100.0 ± 3.8 % of applied dose	89.7 ± 3.4 % of the applied dose	9.3 ± 0.4 % of the applied dose	1.0 ± 0.1 % of the applied dose	–	91.9 ± 3.8 % of applied dose	66.7 ± 3.5 % of the applied dose	24.1 ± 6.2 % of the applied dose	1.4 ± 0.2 % of the applied dose	57.7 ± 3.1 % Applied dose	60.8 ± 0.6 % Applied dose	2.30	780 µg/mL	Number of metabolites detected in the culture medium ([3]; human skin, 24 h): three; Number of metabolites detected in the culture medium [4]: three
OCC=Cc1ccccc1 [Cinnamyl alcohol]	63.2 ± 1.9%	96.8 ± 1.9 % of applied dose	87.1 ± 2.7 % of the applied dose	8.5 ± 0.8 % of the applied dose	1.2 ± 1.1 % of the applied dose	83.5 ± 4.8 %	99.9 ± 5.8 % of applied dose	83.5 ± 4.8 % of the applied dose	16.2 ± 3.2 % of the applied dose	0.2 ± 0.1 % of the applied dose	0.2 ± 0.03 % Applied dose	0.0 % Applied dose	1.95	4000 µg/mL	Number of metabolites detected in the culture medium ([3]; human skin, 24 h): eight
Cn1c(N)nc2c3cccnc3ccc21 [IQ, 2‐amino‐3‐methylimidazo[4,5‐f]quinoline]	30.1 ± 2.3%	96.3 ± 6.6 % of applied dose	54.8 ± 8.3 % of the applied dose	33.6 ± 5.1 % of the applied dose	7.8 ± 3.9 % of the applied dose	10.5 ± 13.4%	94.5 ± 10.6 % of applied dose	10.5 ± 13.4 % of the applied dose	66.0 ± 12.3 % of the applied dose	17.9 ± 3.7 % of the applied dose	–	–	1.47	530 µg/mL	Metabolites detected in the skin or culture media ([3]; human skin): no metabolites were detected; Metabolites detected in the skin or culture media [4]: no metabolites were detected
Oc1cccc(O)c1 [Resorcinol]	58.6 ± 7.6%	92.7 ± 5.92 % of applied dose	71.0 ± 7.1 % of the applied dose	–	–	–	94.2 ± 3.5 % of applied dose	54.4 ± 1.5 % of the applied dose	–	–	–	1.8 ± 0.8 % Applied dose	0.80	–	Glucuronide conjugate as share of the total metabolites observed ([3]; both, human, 24 h): > 78 % of the total metabolites; Parent compound in the medium after 24 h ([3]; both, human, 24 h): 4.8 ± 0.7 % Applied dose; Sulfate conjugate as share of the total metabolites ([3]; both, human, 24 h): 19 % of the total metabolites; Total metabolites in the medium after 24 h ([3]; both, human, 24 h): 41.9 ± 0.6 % Applied dose
COc1cc(C=O)ccc1O [Vanillin]	58.6 ± 5.2%	90.7 ± 1.7 % of applied dose	77.4 ± 5.1 % of the applied dose	–	–	60.0 ± 7.8%	104.4 ± 6.0 % of applied dose	60.0 ± 7.8 % of the applied dose	–	–	–	0.1 ± 0.04 % Applied dose	–	8500 µg/mL	Parent compound in the medium after 24 h ([3]; both, human, 24 h): 0.3 ± 0.09 % Applied dose; Total metabolites in the medium after 24 h ([3]; both, human, 24 h): 51.1 ± 2.3 % Applied dose; Number of metabolites detected in the culture medium [4]: Six
